Results: patent US20110028442A1, “DERIVATIVES OF 4-(2-AMINO-1-HYDROXYETHYL) PHENOL AS AGONISTS OF THE BETA2 ADRENERGIC RECEPTOR” (priority 2008, published 2011)

What was measured:
[1] = molecular target: T1, human adrenergic β2 receptor (Homo sapiens, UniProt P07550); experiment: Human adrenergic β2 receptor binding assay (3H-CGP12177, Sf9 membranes); conditions: for IC50: membranes from Sf9 cells, 0.14 nM 3H-CGP12177, 60 minutes at room temperature; for β1/β2 ratio: ratio of human β1 IC50 to human β2 IC50
T1 construct: purchased Perkin Elmer; host or cells: Sf9 cells
T1 sequence (P07550 whole entry): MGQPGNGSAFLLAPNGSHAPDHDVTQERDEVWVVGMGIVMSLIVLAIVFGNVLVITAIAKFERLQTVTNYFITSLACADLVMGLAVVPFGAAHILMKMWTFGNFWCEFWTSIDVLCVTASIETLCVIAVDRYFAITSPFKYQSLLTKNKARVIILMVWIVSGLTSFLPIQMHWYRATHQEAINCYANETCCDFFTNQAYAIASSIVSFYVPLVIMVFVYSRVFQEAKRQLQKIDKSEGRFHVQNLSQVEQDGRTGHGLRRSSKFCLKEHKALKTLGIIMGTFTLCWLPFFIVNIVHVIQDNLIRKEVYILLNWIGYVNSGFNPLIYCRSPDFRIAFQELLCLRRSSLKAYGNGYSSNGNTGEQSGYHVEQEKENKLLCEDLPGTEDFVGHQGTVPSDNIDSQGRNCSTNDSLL
Description: (§1) Human Adrenergic β1 and β2 Receptor Binding Assays
(§2) The study of binding to human adrenergic β1 and β2 receptors was performed using commercial membranes prepared from Sf9 cells where they are overexpressed (Perkin Elmer).
(§3) The membrane suspensions (16 μg/well for β1 and 5 μg/well for β2) in assay buffer, 75 mM Tris/HCl with 12.5 mM MgCl2 and 2 mM EDTA pH=7.4, were incubated with 0.14 nM 3H-CGP12177 (Amersham) and different concentrations of the test compounds, in a final volume of 250 μl, in GFC Multiscreen 96 well plates (Millipore) pretreated with +0.3% PEI. Non specific binding was measured in the presence of 1 μM propanolol. Incubation was for 60 minutes at room temperature and with gentle shaking. The binding reactions were terminated by filtration and washing with 2.5 volumes of Tris/HCl 50 mM pH=7.4. The affinity of each test compound to the receptor was determined by using at least six different concentrations ran in duplicate. IC50 values were obtained by non-linear regression using SAS.

[2] = molecular target: T2, human adrenergic β1 receptor (Homo sapiens, UniProt P08588); experiment: Human adrenergic β1 receptor binding assay (3H-CGP12177, Sf9 membranes); conditions: membranes from Sf9 cells, 0.14 nM 3H-CGP12177, 60 minutes at room temperature
T2 construct: purchased Perkin Elmer; host or cells: Sf9 cells
T2 sequence (P08588 whole entry): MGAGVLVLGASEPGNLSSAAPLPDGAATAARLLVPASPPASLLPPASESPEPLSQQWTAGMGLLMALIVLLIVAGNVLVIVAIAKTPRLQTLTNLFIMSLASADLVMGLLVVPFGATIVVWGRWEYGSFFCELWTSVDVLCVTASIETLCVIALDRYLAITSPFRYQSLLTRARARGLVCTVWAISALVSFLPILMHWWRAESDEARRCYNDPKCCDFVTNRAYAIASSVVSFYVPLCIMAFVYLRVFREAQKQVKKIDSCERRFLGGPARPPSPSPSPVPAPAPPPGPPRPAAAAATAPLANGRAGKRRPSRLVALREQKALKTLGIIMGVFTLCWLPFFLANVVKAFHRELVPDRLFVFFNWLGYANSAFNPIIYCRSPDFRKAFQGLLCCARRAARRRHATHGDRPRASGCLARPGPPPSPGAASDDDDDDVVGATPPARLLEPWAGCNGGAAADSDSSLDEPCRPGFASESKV
Description: as §1, §2, §3

| SMILES | IC50 [1] [nM] | β1/β2 ratio [1] | IC50 [2] [nM] |
| --- | --- | --- | --- |
| CC(C)(C)c1ccc(CNC(=O)Nc2cccc(CCNC[C@H](O)c3ccc(O)c4[nH]c(=O)ccc34)c2)cc1 (racemic) [Example 33, N-(4-tert-butylbenzyl)-N′-[3-(2-{[(2R,S)-2-hydroxy-2-(8-hydroxy-2-oxo-1,2-dihydroquinolin-5-yl)ethyl]amino}ethyl)phenyl]urea] | 7.6 | 6.0 | 45.5 |
| CC(Cc1cccc(NC(=O)NCc2ccccc2)c1)NCC(O)c1ccc(O)c2[nH]c(=O)ccc12 [Example 3, N-benzyl-N′-[3-((2R,S)-2-{[(2R,S)-2-hydroxy-2-(8-hydroxy-2-oxo-1,2-dihydroquinolin-5-yl)ethyl]amino}propyl)phenyl]urea] | 12 | 8.2 | 98 |
| COc1ccccc1CNC(=O)Nc1cccc(CC(C)NCC(O)c2ccc(O)c3[nH]c(=O)ccc23)c1 [Example 6, N-[3-(2R,S)-2-{[(2R,S)-2-hydroxy-2-(8-hydroxy-2-oxo-1,2-dihydroquinolin-5-yl)ethyl]amino}propyl)phenyl]-N′-(2-methoxybenzyl)urea] | 4.6 | 11.7 | 54 |
| O=C(NCc1ccccc1)Nc1cccc(CCNCC(O)c2ccc(O)c3[nH]c(=O)ccc23)c1 [Example 8, N-benzyl-N′-[3-(2-{[(2R,S)-2-hydroxy-2-(8-hydroxy-2-oxo-1,2-dihydroquinolin-5-yl)ethyl]amino}ethyl)phenyl]urea] | 4.4 | 11.0 | 49 |
| COc1ccccc1CNC(=O)Nc1cccc(CCNCC(O)c2ccc(O)c3[nH]c(=O)ccc23)c1 [Example 9, N-[3-(2-{[(2R,S)-2-hydroxy-2-(8-hydroxy-2-oxo-1,2-dihydroquinolin-5-yl)ethyl]amino}ethyl)phenyl]-N′-(2-methoxybenzyl)urea] | 5.6 | 7.9 | 44.5 |
| O=C(NCCc1ccccc1)Nc1cccc(CCNCC(O)c2ccc(O)c3[nH]c(=O)ccc23)c1 [Example 11, N-[3-(2-{[(2R,S)-2-hydroxy-2-(8-hydroxy-2-oxo-1,2-dihydroquinolin-5-yl)ethyl]amino}ethyl)phenyl]-N′-(2-phenylethyl)urea] | 6.2 | 1.4 | 9 |
| O=C(NCCCc1ccccc1)Nc1cccc(CCNCC(O)c2ccc(O)c3[nH]c(=O)ccc23)c1 [Example 12, N-[3-(2-{[(2R,S)-2-hydroxy-2-(8-hydroxy-2-oxo-1,2-dihydroquinolin-5-yl)ethyl]amino}ethyl)phenyl]-N′-(3-phenylpropyl)urea] | 2.6 | 7.4 | 19.5 |
| O=C(Nc1ccccc1)Nc1cccc(CCNCC(O)c2ccc(O)c3[nH]c(=O)ccc23)c1 [Example 15, N-[3-(2-{[(2R,S)-2-hydroxy-2-(8-hydroxy-2-oxo-1,2-dihydroquinolin-5-yl)ethyl]amino}ethyl)phenyl]-N′-phenylurea] | 10.5 | 0.4 | 4.4 |
| O=C(Nc1cccc(CCNCC(O)c2ccc(O)c3[nH]c(=O)ccc23)c1)NC12CC3CC(CC(C3)C1)C2 [Example 16, N-1-adamantyl-N′-[3-(2-{[(2R,S)-2-hydroxy-2-(8-hydroxy-2-oxo-1,2-dihydroquinolin-5-yl)ethyl]amino}ethyl)phenyl]urea] | 10 | 3.8 | 38.5 |
| O=C(NCc1c(Cl)cccc1Cl)Nc1cccc(CCNCC(O)c2ccc(O)c3[nH]c(=O)ccc23)c1 [Example 17, N-(2,6-dichlorobenzyl)-N′-[3-(2-{[(2R,S)-2-hydroxy-2-(8-hydroxy-2-oxo-1,2-dihydroquinolin-5-yl)ethyl]amino}ethyl)phenyl]urea] | 6 | 13 | 78 |
| O=C(NCCCCc1ccccc1)Nc1cccc(CCNCC(O)c2ccc(O)c3[nH]c(=O)ccc23)c1 [Example 20, N-[3-(2-{[(2R,S)-2-hydroxy-2-(8-hydroxy-2-oxo-1,2-dihydroquinolin-5-yl)ethyl]amino}ethyl)phenyl]-N′-(4-phenylbutyl)urea] | 2.9 | 4.5 | 13 |
| O=C(NCC12CC3CC(CC(C3)C1)C2)Nc1cccc(CCNCC(O)c2ccc(O)c3[nH]c(=O)ccc23)c1 [Example 23, N-(1-adamantylmethyl)-N′-[3-(2-{[(2R,S)-2-hydroxy-2-(8-hydroxy-2-oxo-1,2-dihydroquinolin-5-yl)ethyl]amino}ethyl)phenyl]urea] | 5.9 |  | 36 |
| O=C(Nc1cccc(CCNC[C@H](O)c2ccc(O)c3[nH]c(=O)ccc23)c1)NC(c1ccccc1)c1ccccc1 [Example 26, N-(diphenylmethyl)-N′-[3-(2-{[(2R)-2-hydroxy-2-(8-hydroxy-2-oxo-1,2-dihydroquinolin-5-yl)ethyl]amino}ethyl)phenyl]urea] | 5.3 | 4.6 | 24.5 |
| O=C(Nc1cccc(CCNC[C@H](O)c2ccc(O)c3[nH]c(=O)ccc23)c1)Nc1ccccc1-c1ccccc1 [Example 27, N-biphenyl-2-yl-N′-[3-(2-{[(2R)-2-hydroxy-2-(8-hydroxy-2-oxo-1,2-dihydroquinolin-5-yl)ethyl]amino}ethyl)phenyl]urea] | 9.7 | 2.5 | 24 |
| C[C@@H](Cc1cccc(NC(=O)Nc2ccccc2-c2ccccc2)c1)NC[C@H](O)c1ccc(O)c2[nH]c(=O)ccc12 [Example 32, N-biphenyl-2-yl-N′-[3-(2-{[(2R)-2-hydroxy-2-(8-hydroxy-2-oxo-1,2-dihydroquinolin-5-yl)ethyl]amino}propyl)phenyl]urea, b isomer] | 2.8 | 9.1 | 25.5 |
| O=C(Nc1ccc(CCNC[C@H](O)c2ccc(O)c3[nH]c(=O)ccc23)cc1)NC(c1ccccc1)c1ccccc1 [Example 36, N-(diphenylmethyl)-N′-[4-(2-{[(2R)-2-hydroxy-2-(8-hydroxy-2-oxo-1,2-dihydroquinolin-5-yl)ethyl]amino}ethyl)phenyl]urea] | 4.5 | 4.3 | 19.5 |
